Where a name gives a salt, the structure may show the parent alone.
What was measured:
P-glycoprotein (P-gp) [1] = target: T1, P-glycoprotein (P-gp) (Homo sapiens, UniProt P08183); test: biochemical
[2] = cited from earlier work
P-glycoprotein (P-gp) [3] = target: T1, P-glycoprotein (P-gp); conditions: placental IOV; concentration range tested 100 to 1000 μM; 40 nM [3H]-paclitaxel

T1 sequence (P08183 whole entry): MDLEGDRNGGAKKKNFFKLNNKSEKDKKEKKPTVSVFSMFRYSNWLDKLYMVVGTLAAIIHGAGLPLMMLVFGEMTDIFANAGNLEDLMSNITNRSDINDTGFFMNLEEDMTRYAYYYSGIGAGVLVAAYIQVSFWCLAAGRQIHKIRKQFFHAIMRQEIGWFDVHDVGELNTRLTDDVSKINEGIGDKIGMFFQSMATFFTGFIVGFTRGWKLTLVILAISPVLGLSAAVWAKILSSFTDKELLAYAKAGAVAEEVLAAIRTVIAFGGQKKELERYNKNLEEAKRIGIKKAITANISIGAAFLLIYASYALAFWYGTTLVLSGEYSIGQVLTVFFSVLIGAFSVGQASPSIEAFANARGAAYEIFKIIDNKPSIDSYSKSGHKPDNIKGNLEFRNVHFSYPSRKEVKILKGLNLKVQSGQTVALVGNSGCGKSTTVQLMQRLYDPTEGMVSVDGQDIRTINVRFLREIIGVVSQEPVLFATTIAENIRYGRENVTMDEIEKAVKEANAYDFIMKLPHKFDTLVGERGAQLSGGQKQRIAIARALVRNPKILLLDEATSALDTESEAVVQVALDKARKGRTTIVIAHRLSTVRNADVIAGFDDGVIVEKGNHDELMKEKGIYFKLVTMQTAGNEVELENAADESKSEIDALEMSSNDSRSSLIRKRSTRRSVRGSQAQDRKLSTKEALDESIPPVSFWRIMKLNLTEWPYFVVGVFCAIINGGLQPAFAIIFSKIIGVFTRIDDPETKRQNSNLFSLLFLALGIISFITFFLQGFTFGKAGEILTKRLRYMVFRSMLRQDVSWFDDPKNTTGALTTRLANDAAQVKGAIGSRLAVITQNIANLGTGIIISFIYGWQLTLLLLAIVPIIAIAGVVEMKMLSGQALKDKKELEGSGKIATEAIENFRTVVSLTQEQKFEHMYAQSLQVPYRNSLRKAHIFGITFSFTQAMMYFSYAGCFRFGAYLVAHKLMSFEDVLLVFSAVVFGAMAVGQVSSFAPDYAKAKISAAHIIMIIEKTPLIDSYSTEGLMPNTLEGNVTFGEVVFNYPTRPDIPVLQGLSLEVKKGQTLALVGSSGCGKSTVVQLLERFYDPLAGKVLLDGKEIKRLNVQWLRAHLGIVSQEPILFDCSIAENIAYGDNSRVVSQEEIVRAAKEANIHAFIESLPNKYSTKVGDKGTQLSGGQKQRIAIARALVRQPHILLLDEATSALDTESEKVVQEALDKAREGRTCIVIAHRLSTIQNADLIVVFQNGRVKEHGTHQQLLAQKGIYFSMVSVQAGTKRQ

Compound | IC50 (P-glycoprotein (P-gp) [1]) [µM] | binding to proteins [2] [%] | effect on the ATP-dependent uptake of [3H]-paclitaxel by IOV (P-glycoprotein (P-gp) [3])
CCCCCCCCCCNCCN[C@@]1(C)C[C@H](O[C@H]2[C@H](Oc3c4cc5cc3Oc3ccc(cc3Cl)[C@@H](O)[C@@H](NC(=O)[C@@H](CC(C)C)NC)C(=O)N[C@@H](CC(N)=O)C(=O)N[C@H]5C(=O)N[C@H]3C(=O)N[C@H](C(=O)N[C@H](C(=O)O)c5cc(O)c(CNCP(=O)(O)O)c(O)c5-c5cc3ccc5O)[C@H](O)c3ccc(c(Cl)c3)O4)O[C@H](CO)[C@@H](O)[C@@H]2O)O[C@@H](C)[C@H]1O [telavancin, Telavancin] | 50 | 93 | 
CN[C@H](CC(C)C)C(=O)N[C@H]1C(=O)N[C@@H](CC(N)=O)C(=O)N[C@H]2C(=O)N[C@H]3C(=O)N[C@H](C(=O)N[C@H](C(=O)O)c4cc(O)cc(O)c4-c4cc3ccc4O)[C@H](O)c3ccc(c(Cl)c3)Oc3cc2cc(c3O[C@@H]2O[C@H](CO)[C@@H](O)[C@H](O)[C@H]2O[C@H]2C[C@](C)(N)[C@H](O)[C@H](C)O2)Oc2ccc(cc2Cl)[C@H]1O [vancomycin, vancomycin hydrochloride] |  | 50 | did not affect

— paper PMC3891835 (American journal of obstetrics and gynecology, 2012)
